The source of these data is ChEMBL document CHEMBL3758163, “Extended structure-activity study of thienopyrimidine-based EGFR inhibitors with evaluation of drug-like properties” (Eur J Med Chem, 2016).

Receptor tyrosine-protein kinase erbB-4 (Homo sapiens), sequence (Q15303 whole entry): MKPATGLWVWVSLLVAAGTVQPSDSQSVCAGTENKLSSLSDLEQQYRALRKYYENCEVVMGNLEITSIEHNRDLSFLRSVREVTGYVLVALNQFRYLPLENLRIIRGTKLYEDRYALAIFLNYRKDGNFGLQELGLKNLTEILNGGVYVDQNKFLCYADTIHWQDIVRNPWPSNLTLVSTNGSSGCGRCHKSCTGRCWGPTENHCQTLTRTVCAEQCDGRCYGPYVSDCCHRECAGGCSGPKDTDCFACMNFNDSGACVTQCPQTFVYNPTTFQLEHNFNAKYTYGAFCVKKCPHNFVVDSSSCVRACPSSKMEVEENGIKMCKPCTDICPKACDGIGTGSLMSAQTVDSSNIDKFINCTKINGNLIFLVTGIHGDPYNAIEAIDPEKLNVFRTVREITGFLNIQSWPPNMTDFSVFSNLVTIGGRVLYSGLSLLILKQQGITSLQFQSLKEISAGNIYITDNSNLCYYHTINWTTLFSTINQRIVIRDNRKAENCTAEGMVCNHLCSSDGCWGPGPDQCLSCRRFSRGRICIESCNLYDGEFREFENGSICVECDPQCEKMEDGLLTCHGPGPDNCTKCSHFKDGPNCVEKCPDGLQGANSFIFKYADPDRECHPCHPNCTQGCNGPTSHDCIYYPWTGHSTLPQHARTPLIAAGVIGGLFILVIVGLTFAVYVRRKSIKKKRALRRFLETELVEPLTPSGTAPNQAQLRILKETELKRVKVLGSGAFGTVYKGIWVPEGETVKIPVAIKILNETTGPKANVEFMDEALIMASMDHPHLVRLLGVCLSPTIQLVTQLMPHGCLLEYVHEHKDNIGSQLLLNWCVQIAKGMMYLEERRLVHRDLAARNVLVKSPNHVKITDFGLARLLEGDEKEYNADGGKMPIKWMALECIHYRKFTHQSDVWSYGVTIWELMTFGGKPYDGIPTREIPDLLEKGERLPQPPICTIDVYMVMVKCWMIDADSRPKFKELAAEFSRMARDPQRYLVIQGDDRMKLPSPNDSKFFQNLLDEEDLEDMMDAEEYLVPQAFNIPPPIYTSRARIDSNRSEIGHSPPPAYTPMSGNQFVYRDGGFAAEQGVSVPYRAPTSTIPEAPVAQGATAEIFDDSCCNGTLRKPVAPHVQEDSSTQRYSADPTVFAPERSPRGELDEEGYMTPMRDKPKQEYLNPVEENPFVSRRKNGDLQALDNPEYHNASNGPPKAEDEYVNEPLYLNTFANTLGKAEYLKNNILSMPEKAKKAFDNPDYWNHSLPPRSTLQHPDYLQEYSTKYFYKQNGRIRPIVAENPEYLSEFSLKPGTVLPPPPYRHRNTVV
Vascular endothelial growth factor receptor 2 (Homo sapiens), sequence (P35968 whole entry): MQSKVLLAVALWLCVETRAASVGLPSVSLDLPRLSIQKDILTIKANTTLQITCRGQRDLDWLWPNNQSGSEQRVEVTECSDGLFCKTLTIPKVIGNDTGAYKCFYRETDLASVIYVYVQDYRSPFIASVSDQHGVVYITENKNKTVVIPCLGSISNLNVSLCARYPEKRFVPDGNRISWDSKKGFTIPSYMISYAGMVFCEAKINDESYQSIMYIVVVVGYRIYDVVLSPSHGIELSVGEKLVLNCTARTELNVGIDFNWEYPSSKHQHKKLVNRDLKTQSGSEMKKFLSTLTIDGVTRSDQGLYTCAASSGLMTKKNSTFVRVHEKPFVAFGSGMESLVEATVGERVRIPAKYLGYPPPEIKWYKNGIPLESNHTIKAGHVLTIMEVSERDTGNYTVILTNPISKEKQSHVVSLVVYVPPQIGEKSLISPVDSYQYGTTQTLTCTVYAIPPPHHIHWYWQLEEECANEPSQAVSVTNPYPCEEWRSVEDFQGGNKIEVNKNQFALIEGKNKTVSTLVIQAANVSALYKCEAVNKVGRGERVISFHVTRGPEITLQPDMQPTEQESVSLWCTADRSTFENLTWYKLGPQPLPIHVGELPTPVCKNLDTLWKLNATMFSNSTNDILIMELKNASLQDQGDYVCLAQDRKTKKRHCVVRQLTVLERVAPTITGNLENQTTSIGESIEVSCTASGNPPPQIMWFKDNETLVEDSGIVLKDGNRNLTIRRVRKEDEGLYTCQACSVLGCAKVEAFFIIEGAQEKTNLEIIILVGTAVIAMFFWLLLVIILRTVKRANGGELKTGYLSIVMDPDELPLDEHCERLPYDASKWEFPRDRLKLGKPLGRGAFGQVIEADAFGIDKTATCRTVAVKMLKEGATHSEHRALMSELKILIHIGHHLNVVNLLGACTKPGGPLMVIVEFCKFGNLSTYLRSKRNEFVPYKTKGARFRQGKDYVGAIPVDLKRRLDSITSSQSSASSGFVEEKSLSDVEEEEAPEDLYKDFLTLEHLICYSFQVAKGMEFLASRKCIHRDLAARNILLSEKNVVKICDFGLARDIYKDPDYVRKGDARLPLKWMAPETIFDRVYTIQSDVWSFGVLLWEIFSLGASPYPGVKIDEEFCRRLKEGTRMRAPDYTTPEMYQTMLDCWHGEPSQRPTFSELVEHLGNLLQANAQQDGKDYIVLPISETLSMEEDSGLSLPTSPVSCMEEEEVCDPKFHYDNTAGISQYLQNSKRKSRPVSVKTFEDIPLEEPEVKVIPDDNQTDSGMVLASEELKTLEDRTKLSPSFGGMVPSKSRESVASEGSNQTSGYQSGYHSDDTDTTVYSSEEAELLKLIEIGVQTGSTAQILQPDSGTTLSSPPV

The first assay addresses T1, Aurora kinase A (Homo sapiens) (UniProt O14965).
T1 sequence (whole entry): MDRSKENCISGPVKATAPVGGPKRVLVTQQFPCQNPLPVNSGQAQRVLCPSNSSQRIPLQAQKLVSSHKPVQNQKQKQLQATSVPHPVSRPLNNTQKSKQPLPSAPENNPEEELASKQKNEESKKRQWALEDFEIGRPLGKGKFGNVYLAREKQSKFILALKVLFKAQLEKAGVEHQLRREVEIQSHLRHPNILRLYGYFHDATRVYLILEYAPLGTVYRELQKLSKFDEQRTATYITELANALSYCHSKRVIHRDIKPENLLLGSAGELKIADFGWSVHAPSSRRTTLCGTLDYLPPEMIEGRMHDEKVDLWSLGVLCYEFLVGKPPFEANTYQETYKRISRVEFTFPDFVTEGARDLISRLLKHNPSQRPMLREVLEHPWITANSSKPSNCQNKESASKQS
Nature of the assay: Inhibition of AURKA (unknown origin) at 500 nM.
As to `COc1cc(CO)ccc1-c1cc2c(Nc3ccc(F)c(Cl)c3)ncnc2s1`, the inhibition (commonly the change of the read-out against control, counted positive when it falls) is -6%.

On to `C[C@@H](Nc1ncnc2sc(-c3ccccc3C(N)=O)cc12)c1ccccc1`, for which the inhibition stood at 6%.

On to `C[C@@H](Nc1ncnc2sc(-c3ccc(C(=O)NCCN(C)C)cc3)cc12)c1ccccc1`, for which the inhibition was found to be 3%.

The next assay deals with Tyrosine-protein kinase Fyn (Homo sapiens) (UniProt P06241). The assay is described as follows: Inhibition of FYN (unknown origin) at 500 nM.
Tyrosine-protein kinase Fyn (Homo sapiens), sequence (P06241 2-537 limits assumed): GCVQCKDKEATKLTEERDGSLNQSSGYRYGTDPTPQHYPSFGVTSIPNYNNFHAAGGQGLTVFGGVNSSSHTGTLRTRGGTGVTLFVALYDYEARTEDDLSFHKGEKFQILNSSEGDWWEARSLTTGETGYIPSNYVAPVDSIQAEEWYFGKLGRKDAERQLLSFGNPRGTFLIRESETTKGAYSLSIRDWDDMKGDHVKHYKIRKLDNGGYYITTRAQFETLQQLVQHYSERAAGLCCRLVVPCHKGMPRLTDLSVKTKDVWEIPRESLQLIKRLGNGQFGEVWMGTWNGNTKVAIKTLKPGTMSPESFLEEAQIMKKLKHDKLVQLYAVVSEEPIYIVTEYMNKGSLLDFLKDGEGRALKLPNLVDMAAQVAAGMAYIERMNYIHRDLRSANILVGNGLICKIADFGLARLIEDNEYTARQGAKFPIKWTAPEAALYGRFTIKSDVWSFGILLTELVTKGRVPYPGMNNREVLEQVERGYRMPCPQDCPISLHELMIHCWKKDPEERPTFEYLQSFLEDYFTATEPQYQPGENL
For the compound `COc1cc(CO)ccc1-c1cc2c(Nc3ccc(F)c(Cl)c3)ncnc2s1`, the inhibition was determined as 5%.

For `C[C@@H](Nc1ncnc2sc(-c3ccccc3C(N)=O)cc12)c1ccccc1`, the inhibition came to 7%.

In the case of `C[C@@H](Nc1ncnc2sc(-c3ccc(C(=O)NCCN(C)C)cc3)cc12)c1ccccc1`, the inhibition is 19%.

The target in another assay is Tyrosine-protein kinase Lyn (Homo sapiens) (UniProt P07948). Nature of the assay: Inhibition of LYN B (unknown origin) at 500 nM.
Tyrosine-protein kinase Lyn (Homo sapiens), sequence (P07948 2-512 limits assumed): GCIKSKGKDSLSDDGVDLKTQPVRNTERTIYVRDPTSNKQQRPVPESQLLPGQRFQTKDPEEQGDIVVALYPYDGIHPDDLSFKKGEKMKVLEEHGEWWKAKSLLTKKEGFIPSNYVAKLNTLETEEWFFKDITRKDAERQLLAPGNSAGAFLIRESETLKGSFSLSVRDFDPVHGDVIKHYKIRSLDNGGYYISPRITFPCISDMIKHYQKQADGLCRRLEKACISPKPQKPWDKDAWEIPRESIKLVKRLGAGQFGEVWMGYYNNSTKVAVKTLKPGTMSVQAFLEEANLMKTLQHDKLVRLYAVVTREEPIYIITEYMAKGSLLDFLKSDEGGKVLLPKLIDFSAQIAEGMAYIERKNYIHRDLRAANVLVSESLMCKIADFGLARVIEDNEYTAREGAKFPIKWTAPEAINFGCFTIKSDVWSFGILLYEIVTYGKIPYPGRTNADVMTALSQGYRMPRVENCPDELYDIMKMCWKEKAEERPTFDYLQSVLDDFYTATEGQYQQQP
As for `COc1cc(CO)ccc1-c1cc2c(Nc3ccc(F)c(Cl)c3)ncnc2s1`, the inhibition was determined as 15%.

In the case of `C[C@@H](Nc1ncnc2sc(-c3ccccc3C(N)=O)cc12)c1ccccc1`, the inhibition amounted to 16%.

With `C[C@@H](Nc1ncnc2sc(-c3ccc(C(=O)NCCN(C)C)cc3)cc12)c1ccccc1`, the inhibition is 41%.

For the next assay, the target named is T2, Serine/threonine-protein kinase Nek1 (Homo sapiens) (UniProt Q96PY6).
T2 sequence (whole entry): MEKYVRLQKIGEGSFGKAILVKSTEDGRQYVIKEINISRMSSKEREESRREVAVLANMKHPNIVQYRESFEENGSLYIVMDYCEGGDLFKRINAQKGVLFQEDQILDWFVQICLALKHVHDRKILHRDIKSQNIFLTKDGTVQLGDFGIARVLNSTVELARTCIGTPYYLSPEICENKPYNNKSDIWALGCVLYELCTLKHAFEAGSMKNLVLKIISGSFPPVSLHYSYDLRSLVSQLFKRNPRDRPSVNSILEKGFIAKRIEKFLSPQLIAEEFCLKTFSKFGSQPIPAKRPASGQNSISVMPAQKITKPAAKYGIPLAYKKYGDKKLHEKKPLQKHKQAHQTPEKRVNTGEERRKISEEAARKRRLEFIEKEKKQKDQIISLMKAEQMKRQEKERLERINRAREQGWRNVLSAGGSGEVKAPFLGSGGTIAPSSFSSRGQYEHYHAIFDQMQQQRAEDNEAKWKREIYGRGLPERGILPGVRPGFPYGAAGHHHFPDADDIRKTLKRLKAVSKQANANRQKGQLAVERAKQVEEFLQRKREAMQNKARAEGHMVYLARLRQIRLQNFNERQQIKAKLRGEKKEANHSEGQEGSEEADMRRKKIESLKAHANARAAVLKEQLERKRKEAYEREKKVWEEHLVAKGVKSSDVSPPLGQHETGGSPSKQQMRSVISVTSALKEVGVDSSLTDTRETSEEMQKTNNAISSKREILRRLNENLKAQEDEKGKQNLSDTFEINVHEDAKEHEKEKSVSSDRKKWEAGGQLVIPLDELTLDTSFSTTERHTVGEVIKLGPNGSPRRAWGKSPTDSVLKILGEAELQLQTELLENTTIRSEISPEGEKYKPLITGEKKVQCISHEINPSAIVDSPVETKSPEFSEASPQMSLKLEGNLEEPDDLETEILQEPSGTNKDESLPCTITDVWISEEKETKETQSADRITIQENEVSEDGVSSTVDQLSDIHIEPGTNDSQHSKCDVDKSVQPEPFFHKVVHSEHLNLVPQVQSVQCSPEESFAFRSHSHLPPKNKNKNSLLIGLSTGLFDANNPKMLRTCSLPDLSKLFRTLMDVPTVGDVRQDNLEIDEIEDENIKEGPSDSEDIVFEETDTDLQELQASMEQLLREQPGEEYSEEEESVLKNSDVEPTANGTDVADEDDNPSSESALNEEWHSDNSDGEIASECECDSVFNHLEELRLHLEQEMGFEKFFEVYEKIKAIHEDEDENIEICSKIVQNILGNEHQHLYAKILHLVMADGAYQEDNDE
The assay is described as follows: Inhibition of NEK1 (unknown origin) at 500 nM.
Take `C#Cc1cccc(Nc2ncnc3cc(OCCOC)c(OCCOC)cc23)c1` [ERLOTINIB]: the inhibition is -8%.

For `C[C@@H](Nc1ncnc2sc(-c3ccccc3C(N)=O)cc12)c1ccccc1`, the inhibition was determined as 3%.

Take `C[C@@H](Nc1ncnc2sc(-c3ccc(C(=O)NCCN(C)C)cc3)cc12)c1ccccc1`: the inhibition was 4%.

For a further assay, the target named is Hepatocyte growth factor receptor (Homo sapiens) (UniProt P08581). The assay is described as follows: Inhibition of MET (unknown origin) at 500 nM.
As for `C#Cc1cccc(Nc2ncnc3cc(OCCOC)c(OCCOC)cc23)c1` [ERLOTINIB], the inhibition was found to be 11%.

Regarding `COc1cc(CO)ccc1-c1cc2c(Nc3ccc(F)c(Cl)c3)ncnc2s1`, the inhibition is -5%.

A further assay concerns the target Tyrosine-protein kinase Lyn (Homo sapiens) (UniProt P07948). The assay is described as follows: Inhibition of LYN A (unknown origin) at 500 nM.
Consider `C#Cc1cccc(Nc2ncnc3cc(OCCOC)c(OCCOC)cc23)c1` [ERLOTINIB], for which the inhibition was determined as 68%.

As to `COc1cc(CO)ccc1-c1cc2c(Nc3ccc(F)c(Cl)c3)ncnc2s1`, the inhibition amounted to 13%.

For the compound `C[C@@H](Nc1ncnc2sc(-c3ccccc3C(N)=O)cc12)c1ccccc1`, the inhibition is 16%.

On to `C[C@@H](Nc1ncnc2sc(-c3ccc(C(=O)NCCN(C)C)cc3)cc12)c1ccccc1`, for which the inhibition was 38%.

Another assay addresses Tyrosine-protein kinase SYK (Homo sapiens) (UniProt P43405). The assay is described as follows: Inhibition of SYK (unknown origin) at 500 nM.
Consider `COc1cc(CO)ccc1-c1cc2c(Nc3ccc(F)c(Cl)c3)ncnc2s1`, for which the inhibition turned out to be 11%.

`C[C@@H](Nc1ncnc2sc(-c3ccccc3C(N)=O)cc12)c1ccccc1`: the inhibition was found to be 6%.

Take `C[C@@H](Nc1ncnc2sc(-c3ccc(C(=O)NCCN(C)C)cc3)cc12)c1ccccc1`: the inhibition was found to be 7%.

The target in the next assay is Vascular endothelial growth factor receptor 3 (Homo sapiens) (UniProt P35916). The assay is described as follows: Inhibition of FLT4 (unknown origin) at 500 nM.
Vascular endothelial growth factor receptor 3 (Homo sapiens), sequence (P35916 whole entry): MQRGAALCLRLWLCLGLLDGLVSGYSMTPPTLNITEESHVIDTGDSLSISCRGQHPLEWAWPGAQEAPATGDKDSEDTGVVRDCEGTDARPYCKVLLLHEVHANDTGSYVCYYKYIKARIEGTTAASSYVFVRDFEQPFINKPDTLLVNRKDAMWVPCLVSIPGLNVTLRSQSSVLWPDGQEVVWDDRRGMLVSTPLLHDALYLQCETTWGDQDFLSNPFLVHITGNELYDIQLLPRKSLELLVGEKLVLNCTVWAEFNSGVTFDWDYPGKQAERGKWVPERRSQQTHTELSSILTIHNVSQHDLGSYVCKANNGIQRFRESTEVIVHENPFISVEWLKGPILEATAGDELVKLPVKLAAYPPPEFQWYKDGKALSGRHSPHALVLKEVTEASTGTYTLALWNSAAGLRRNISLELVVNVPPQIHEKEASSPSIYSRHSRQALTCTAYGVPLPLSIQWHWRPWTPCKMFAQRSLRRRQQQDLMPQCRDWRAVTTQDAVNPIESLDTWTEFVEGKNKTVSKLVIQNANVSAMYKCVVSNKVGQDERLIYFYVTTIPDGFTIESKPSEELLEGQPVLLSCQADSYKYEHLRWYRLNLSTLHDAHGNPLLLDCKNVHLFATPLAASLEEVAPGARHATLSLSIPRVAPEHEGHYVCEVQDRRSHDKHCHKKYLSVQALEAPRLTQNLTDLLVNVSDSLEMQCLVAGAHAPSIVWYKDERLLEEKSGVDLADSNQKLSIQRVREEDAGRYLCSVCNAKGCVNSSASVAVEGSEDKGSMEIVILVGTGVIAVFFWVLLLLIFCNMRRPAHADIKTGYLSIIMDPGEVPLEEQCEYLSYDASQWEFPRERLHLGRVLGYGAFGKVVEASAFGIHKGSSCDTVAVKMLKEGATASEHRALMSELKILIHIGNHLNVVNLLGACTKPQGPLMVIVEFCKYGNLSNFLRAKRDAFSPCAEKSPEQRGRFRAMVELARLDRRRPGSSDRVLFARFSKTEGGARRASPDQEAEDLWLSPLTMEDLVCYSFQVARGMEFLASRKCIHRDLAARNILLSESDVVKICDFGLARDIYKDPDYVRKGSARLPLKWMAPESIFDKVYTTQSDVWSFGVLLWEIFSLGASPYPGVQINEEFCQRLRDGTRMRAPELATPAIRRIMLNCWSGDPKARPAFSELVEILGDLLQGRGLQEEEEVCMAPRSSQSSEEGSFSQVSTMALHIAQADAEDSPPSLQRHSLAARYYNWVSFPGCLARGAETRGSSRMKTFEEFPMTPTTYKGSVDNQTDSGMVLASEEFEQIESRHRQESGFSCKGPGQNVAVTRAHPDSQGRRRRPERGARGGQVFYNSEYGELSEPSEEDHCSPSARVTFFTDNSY
Take `COc1cc(CO)ccc1-c1cc2c(Nc3ccc(F)c(Cl)c3)ncnc2s1`: the inhibition is 8%.

Regarding `C[C@@H](Nc1ncnc2sc(-c3ccccc3C(N)=O)cc12)c1ccccc1`, the inhibition turned out to be 2%.

Consider `C[C@@H](Nc1ncnc2sc(-c3ccc(C(=O)NCCN(C)C)cc3)cc12)c1ccccc1`, for which the inhibition was 13%.

The target in the next assay is Mast/stem cell growth factor receptor Kit (Homo sapiens) (UniProt P10721). Nature of the assay: Inhibition of KIT (unknown origin) at 500 nM.
As to `COc1cc(CO)ccc1-c1cc2c(Nc3ccc(F)c(Cl)c3)ncnc2s1`, the inhibition turned out to be 1%.

Consider `C[C@@H](Nc1ncnc2sc(-c3ccccc3C(N)=O)cc12)c1ccccc1`, for which the inhibition was -7%.

Take `C[C@@H](Nc1ncnc2sc(-c3ccc(C(=O)NCCN(C)C)cc3)cc12)c1ccccc1`: the inhibition was -5%.

Another assay addresses T3, Inhibitor of nuclear factor kappa-B kinase subunit beta (Homo sapiens) (UniProt O14920).
T3 sequence (whole entry): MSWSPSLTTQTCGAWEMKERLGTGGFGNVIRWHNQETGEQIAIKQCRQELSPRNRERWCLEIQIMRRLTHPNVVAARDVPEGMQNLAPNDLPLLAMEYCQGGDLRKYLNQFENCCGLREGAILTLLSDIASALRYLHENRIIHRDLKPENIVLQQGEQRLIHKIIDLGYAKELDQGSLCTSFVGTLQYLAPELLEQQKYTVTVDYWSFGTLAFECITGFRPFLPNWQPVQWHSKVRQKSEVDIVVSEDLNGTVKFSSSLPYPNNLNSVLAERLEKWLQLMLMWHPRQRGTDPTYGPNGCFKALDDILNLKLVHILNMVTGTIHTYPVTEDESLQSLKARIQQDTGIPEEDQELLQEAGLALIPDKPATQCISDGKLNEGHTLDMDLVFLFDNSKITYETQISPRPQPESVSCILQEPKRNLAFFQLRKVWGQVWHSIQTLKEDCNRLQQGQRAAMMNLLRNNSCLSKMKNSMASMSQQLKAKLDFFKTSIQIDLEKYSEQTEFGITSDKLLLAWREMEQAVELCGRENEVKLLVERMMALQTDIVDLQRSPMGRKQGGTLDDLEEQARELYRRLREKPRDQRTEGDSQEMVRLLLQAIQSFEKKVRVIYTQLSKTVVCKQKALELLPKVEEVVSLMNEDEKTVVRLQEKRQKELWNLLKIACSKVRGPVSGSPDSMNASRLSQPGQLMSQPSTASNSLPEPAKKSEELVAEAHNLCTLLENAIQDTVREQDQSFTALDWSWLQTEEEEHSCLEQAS
Nature of the assay: Inhibition of IKBKB (unknown origin) at 500 nM.
On to `C#Cc1cccc(Nc2ncnc3cc(OCCOC)c(OCCOC)cc23)c1` [ERLOTINIB], for which the inhibition is -5%.

As to `COc1cc(CO)ccc1-c1cc2c(Nc3ccc(F)c(Cl)c3)ncnc2s1`, the inhibition is 1%.

Take `C[C@@H](Nc1ncnc2sc(-c3ccccc3C(N)=O)cc12)c1ccccc1`: the inhibition worked out at 6%.

With `C[C@@H](Nc1ncnc2sc(-c3ccc(C(=O)NCCN(C)C)cc3)cc12)c1ccccc1`, the inhibition was determined as 7%.

Another assay concerns the target Receptor tyrosine-protein kinase erbB-4 (Homo sapiens) (UniProt Q15303). Nature of the assay: Inhibition of ERBB4 (unknown origin) at 500 nM.
Take `C#Cc1cccc(Nc2ncnc3cc(OCCOC)c(OCCOC)cc23)c1` [ERLOTINIB]: the inhibition came to 78%.

`COc1cc(CO)ccc1-c1cc2c(Nc3ccc(F)c(Cl)c3)ncnc2s1`: the inhibition was determined as 31%.

`C[C@@H](Nc1ncnc2sc(-c3ccccc3C(N)=O)cc12)c1ccccc1`: the inhibition turned out to be 10%.

In the case of `C[C@@H](Nc1ncnc2sc(-c3ccc(C(=O)NCCN(C)C)cc3)cc12)c1ccccc1`, the inhibition is 14%.

Another assay has as its target Vascular endothelial growth factor receptor 2 (Homo sapiens) (UniProt P35968). Nature of the assay: Inhibition of KDR (unknown origin) at 500 nM.
Turning to `COc1cc(CO)ccc1-c1cc2c(Nc3ccc(F)c(Cl)c3)ncnc2s1`, the inhibition amounted to 3%.

For `C[C@@H](Nc1ncnc2sc(-c3ccccc3C(N)=O)cc12)c1ccccc1`, the inhibition is -4%.

`C[C@@H](Nc1ncnc2sc(-c3ccc(C(=O)NCCN(C)C)cc3)cc12)c1ccccc1`: the inhibition was found to be 6%.

The target in another assay is cAMP-dependent protein kinase catalytic subunit alpha (Homo sapiens) (UniProt P17612). Nature of the assay: Inhibition of PRKACA (unknown origin) at 500 nM.
Take `C#Cc1cccc(Nc2ncnc3cc(OCCOC)c(OCCOC)cc23)c1` [ERLOTINIB]: the inhibition was -10%.

Regarding `COc1cc(CO)ccc1-c1cc2c(Nc3ccc(F)c(Cl)c3)ncnc2s1`, the inhibition amounted to 8%.

Turning to `C[C@@H](Nc1ncnc2sc(-c3ccccc3C(N)=O)cc12)c1ccccc1`, the inhibition was -8%.

For the compound `C[C@@H](Nc1ncnc2sc(-c3ccc(C(=O)NCCN(C)C)cc3)cc12)c1ccccc1`, the inhibition was -6%.
